Here are results for three molecules from patent US8598118B2, “Hepatocyte growth factor mimics as therapeutic agents” (Washington State University, priority 2011, dated 2013).

Series [1] is described as follows: Stability of Dihexa in the blood (not shown). The series is classed as in vitro ADME.
The test system of series [2] is Met. The series can be described thus: Inhibition of HGF-dependent Met phosphorylation in HEK293 cells. Conditions: 10 min. Type of series: cell-based, human. The method, then:
HEK293 cells were seeded in 6 well tissue culture plates and grown to 95% confluency in DMEM containing 10% FBS. The cells were serum deprived for 24 h prior to the treatment to reduce the basal levels of phospho-Met. Following serum starvation, cocktails comprised of vehicle and HGF with/without 6-AH analogs were prepared and pre-incubated for 30 min at room temperature. The cocktail was then added to the cells for 10 min to stimulate the Met receptor and downstream proteins. Cells were harvested using RIPA lysis buffer (Millipore; Billerica, Mass.) fortified with phosphatase inhibitor cocktails 1 and 2 (Sigma-Aldrich; St. Louis, Mo.). The lysate was clarified by centrifugation at 15,000 nx g for 15 min, protein concentrations were determined using the BCA total protein assay (Pierce), and then appropriate volumes of the lysates were diluted with 2× reducing Laemmli buffer and heated for ten min at 95° C. Samples containing identical amounts of protein were resolved using SDS-PAGE (Criterion, BioRad Laboratories), transferred to nitrocellulose, and blocked in Tris-buffered saline (TBS) containing 5% milk for 1 h at room temperature. The phospho-Met antibody were added to the blocking buffer at a final concentration of 1:1000 and incubated at 4° C. overnight with gentle agitation. The membranes were then washed several times with water and TBS ([…], 0.05% Tween-20), a 1:5000 dilution of horseradish-peroxidase conjugated goat anti-rabbit antiserum was added, and the membranes further incubated for 1 h at room temperature. Proteins were visualized using the Supersignal West Pico Chemiluminescent Substrate system (Pierce, Fenton, Mo.) and molecular weights determined by comparison to protein ladders (BenchMark, Invitrogen, and Kaleidoscope, BioRad). Film images were digitized and analyzed using a UVP phosphoimager.

For series [3], the system named is MDCK cells. The series can be described thus: HGF-dependent MDCK cell proliferation (MTT). Type of series: cell-based, canine. Conditions: analog 10^−10M, 4 days. The method, then:
5000 MDCK cells were seeded into the wells of a 96 well plates in 10% FBS DMEM. To induce cellular quiescence, the cells were serum deprived for 24 h prior to initiating the treatments. Following serum starvation, 10 ng/ml HGF alone and with various concentrations of 6-AH analogs or PBS vehicle were added to the media. The cells were allowed to grow under these conditions for 4 days with a daily addition of 6-AH analogs. On the fourth day, 1 mg/ml of […] (MTT, Sigma-Aldrich) prepared in PBS was added to the cells and incubated for 4 h. Dimethyl sulfoxide diluted in a 0.01M glycine buffer was added to solubilize the cell membranes and the absorbance of reduced MTT in the buffer was quantitated at 590 nm using a plate reader (Biotek Synergy 2, Winooski, Vt.). HGF-dependent proliferation was determined by subtracting the basal proliferation (in the absence of HGF) from total proliferation rates in groups containing HGF.

Series [4] has as its system MDCK cells. The series can be described thus: Inhibition of HGF-dependent scattering in MDCK cells. The series is classed as cell-based, canine. Conditions: 20 ng/ml HGF, 48 h. The method, then: (§1) MDCK cells were grown to 100% confluency on the coverslips in six-well plates and washed twice with PBS. The confluent coverslips were then aseptically transferred to new six well plates containing 900 μl serum free DMEM. Norleual, Hinge peptide, and/or HGF (20 ng/ml) were added to appropriate wells. Control wells received PBS vehicle. Plates were incubated at 37° C. with 5% CO2 for 48 hours. Media was removed and cells were fixed with methanol. Cells were stained with Diff-Quik Wright-Giemsa (Dade-Behring, Newark, Del.) and digital images were taken. Coverslips were removed with forceps and more digital images were captured. Pixel quantification of images was achieved using Image J and statistics were performed using Prism 5 and InStat v.3.05.
as §1, with “h.” for “hours.”, “v.3.05 (GraphPad; San Diego, Calif.).” for “v.3.05.”

Series [5] relates to B16-F10 murine melanoma cells. The series can be described thus: B16-F10 melanoma lung colony formation. The series is classed as in vivo. Conditions: daily IP 10 μg/kg/day and 100 μg/kg/day, 14 days, C57BL/6 mice. The method, then:
Six to eight month old C57BL/6 mice were injected with 400,000 B16-F10 cells in 200 μl PBS by tail vein injection and subsequently received daily intraperitoneal injections of either D-Nle-X-Cys-NH—(CH2)5—CONH2 (10 μg/kg and 100 μg/kg) or a PBS vehicle control. Two weeks later, mice were anesthetized and lungs were perfused with PBS and removed. Photos were taken and lungs were solubilized in 1% Triton x-100, 20 mM Tris, 0.15 M NaCl, 2 mM EDTA, and 0.02% sodium azide. Samples were disrupted by sonication (Mixonix, Farmingdale, N.Y.) and spun. The supernatant was transferred to a 96 well plate and melanin absorbance at 410 nm was measured using a plate reader.

Series [6] can be described thus: Blood stability studies (heparinized rat blood, 37° C.). Type of series: in vitro ADME. Conditions: heparinized whole blood, single phase exponential decay, read-out: stability t1/2 in blood.
Protocol: At the end of each incubation, 20 μL of Nle^1-AngIV (100 μg/mL) was added to each sample as an internal standard. […] All samples were centrifuged at 4° C., 2300×g for 5 min and the supernatants were transferred to clean tubes.
Samples were then separated by HPLC on an Econosphere C18 (100 mm×2.1 mm) from Grace Davison Discovery Science (Deerfield, Ill.). […] The mobile phase consisted of HPLC water (Sigma St. Louis, Mo.) with 0.1% trifluoroacetic or 0.1% heptafluorobutyric acid (Sigma St. Louis, Mo.) and varying concentrations of ACN or methanol. Separation was carried out using a gradient method, at ambient temperature and a flow rate of 0.3 mL/min (see below for more information). Stability half-lives were determined assuming a normal single phase exponential decay using Prism 5 graphical/statistical program (GraphPad, San Diego, Calif.).
The conditions of series [7]: rat, iv, 24 mg/kg.
Protocol: (§2) Male Sprague-Dawley rats (250+ g) were allowed food (Harlan Teklad rodent diet) and water ad libitum in our AAALAC certified animal facility. Rats were housed in temperature-controlled rooms with a 12 h light/dark cycle. The right jugular veins of the rats were catheterized with sterile polyurethane Hydrocoat™ catheters (Access Technologies, Skokie, Ill., USA) under ketamine (Fort Dodge Animal Health, Fort Dodge, Iowa, USA) and isoflurane (Vet One™, MWI, Meridian, Id., USA) anesthesia. The catheters were exteriorized through the dorsal skin. The catheters were flushed with heparinized saline before and after blood sample collection and filled with heparin-glycerol locking solution (6 mL glycerol, 3 mL saline, 0.5 mL gentamycin (100 mg/mL), 0.5 mL heparin (10,000 u/mL)) when not used for more than 8 h. The animals were allowed to recover from surgery for several days before use in any experiment, and were fasted overnight prior to the pharmacokinetic experiment.
(§3) Catheterized rats were placed in metabolic cages prior to the start of the study and time zero blood samples were collected. […] After dosing, blood samples were collected as follows (times and blood volumes collected are listed in chronological order):
(§4) After each blood sample was taken, the catheter was flushed with saline solution and a volume of saline equal to the volume of blood taken was injected (to maintain total blood volume).
(§5) Upon collection into polypropylene microfuge tubes without heparin, blood samples were immediately centrifuged at 4° C., 2300×g for 5 min to remove any cells and clots and the serum transferred into clean microcentrifuge tubes. A volume of internal standard (Nle^1-AngIV, 100 μg/mL) equal to 0.1 times the sample serum volume was added. A volume of ice-cold acetonitrile equal to four times the sample serum volume was then added and the sample vortexed vigorously for 30 s. The supernatants were transferred to clean tubes, then held on ice until the end of the experiment, and stored at 4° C. afterward until further processing.
(§6) All samples were evaporated to dryness in a Savant SpeedVac® concentrator. […] The samples were then transferred to HPLC autosampler vials and 100 μl was injected into the HPLC system a total of 2 times (2 HPLC/MS analyses) for each sample.
(§7) Data collection and integration were achieved using Shimadzu LCMS solution software. The analytical column used was an Econosphere C18 (100 mm×2.1 mm) from Grace Davison Discovery Science (Deerfield, Ill., USA). The mobile phase consisted of HPLC grade methanol and water with 0.1% trifluoroacetic acid. Separation was carried out using a non-isocratic method (40%-50% methanol over 10 min) at ambient temperature and a flow rate of 0.3 mL/min. […] Data were normalized based on the recovery of the internal standard.
(§8) Pharmacokinetic analysis was performed using data from individual rats. The mean and standard deviation (SD) were calculated for the group.
Series [8] can be described thus: in vivo. Conditions: male, Sprague-Dawley, rat, iv, 24 mg/kg.
Protocol: as §2, §3, §4, §5, §6, §7, §8

Where a SMILES comes first, the peptide text is derived from it. [ ]: non-standard residue; d: D form. The star is where a group is joined. dNle = CCCC[C@@H](N)C(=O)O; Hexanoyl = CCCCCC(=O)*; Ahx = NCCCCCC(=O)O

As for `CCCCCC(=O)N[C@@H](Cc1ccc(O)cc1)C(=O)N[C@H](C(=O)NCCCCCC(N)=O)[C@@H](C)CC` [Dihexa, N-hexanoic-Tyr-Ile-(6)-aminohexanoic amide] (Hexanoyl-Tyr-Ile-[Ahx]-NH2), the “stable in the blood” value in series [1] is listed as “over 5 hours”.

In the case of `CCCC[C@@H](N)C(=O)N[C@@H](CS)C(=O)N[C@H](C(=O)NCCCCCC(N)=O)[C@@H](C)CC` [D-Nle-Cys-Ile-NH—(CH2)5—CONH2] (H-[dNle]CI[Ahx]-NH2), the “inhibition of HGF-dependent Met auto-phosphorylation” value in series [2] was “able to block Met auto-phosphorylation”. Besides, the “inhibition of HGF-dependent MDCK cell proliferation” value in series [3] is on record as “marked inhibitory activity”. For the same molecule, in series [4], the “inhibition of HGF-dependent MDCK cell scattering” value is “different from the HGF alone group but not different from the control group”. Moreover, the figures for the “inhibition of B16-F10 melanoma lung colonization” value in series [5] and in series [5] (listed as D-Nle-Cys-Ile-(6)-amino-hexanoic amide) were “radically prevented lung colonization” and “obvious reduction in melanoma colonies”, respectively.

Consider `CCCC[C@@H](N)C(=O)N[C@@H](Cc1ccc(O)cc1)C(=O)N[C@H](C(=O)NCCCCCC(N)=O)[C@@H](C)CC` (H-[dNle]YI[Ahx]-NH2), for which, in series [6], the half-life worked out at 1.33 h. Also, in series [2], the “inhibition of HGF-dependent Met auto-phosphorylation” value is given as “able to block Met auto-phosphorylation”. Also, the “inhibition of HGF-dependent MDCK cell proliferation” value in series [3] is given as “marked inhibitory activity”. In addition, the “inhibition of HGF-dependent MDCK cell scattering” value in series [4] is listed as “different from the HGF alone group but not different from the control group”. The “t½ (in vivo elimination half-life)” value in series [7] (male, Sprague-Dawley) turned out to be 16.867 ± 6.523 h. This molecule also registered a KE in series [7] (in vivo) of 0.001 ± 0.0002 min⁻¹. For the same molecule, in series [8], the AUC(0-inf) is 11500 ng·h/mL, the Vd came out at 104 ± 65 L/kg, the clearance worked out at 58.3 ± 15.6 mL/min/kg and the half-life worked out at 16.9 h.

A word on the AUC(0-inf): it is the area under the concentration-time curve extrapolated to infinity. In general, Vd refers to a proportionality between amount in the body and measured concentration, not a real space. Read a low Vd as little distribution into tissue. As a reminder, the clearance is a measure of how efficiently the substance is removed, as volume per time. Read a low clearance as a low capacity for elimination.
